Like-named read-outs stand apart in the source and are kept apart here.
Assay: MicroPET distribution of [^18F]-GA after PG polysaccharides intervention
Format: in vivo, mice
Settings: for tissue uptake at 1 h / tissue uptake at 168 h: male, Kunming, mouse, lungs, po; for tissue uptake at 1 h: PG polysaccharides orally 1 h before [^18F]-GA, read-out: %ID/g of [^18F]-GA in the lungs, OA; for tissue uptake at 168 h: PG polysaccharides orally for 7 days, read-out: %ID/g of [^18F]-GA in the lungs, LA
Description: The mice were grouped by weight and housed in cages of the climate control room (25°C), with a photoperiod 12:12-h. During feeding, mice were free to access food and water. Mice were fasted for 24 h before the experiment. The mice were anesthetized with 4% isoflurane while preparing for scanning ([Constantinescu et al., 2013b]; [Cui et al., 2017]). Eighteen healthy male Kunming mice, weighing 20 ± 2 g, were divided into three groups, which were control group, once-administered (OA) group and long-term administration (LA) group. In the OA group, 1 h before the administration of [^18F]-GA, the mice were orally treated with PG polysaccharides. In the LA group, the mice were orally given the PG polysaccharides for 7 days, but not before the administration of [^18F]-GA.
Rice received a tail vein injection (8.67 ± 2.14 MBq/μg) of [^18F]-GA and placed in the scanner bed and mouse-imaging room immediately ([Constantinescu et al., 2013b]; [O’Doherty et al., 2017]). Firstly, 2 h PET scanning was performed using an Inveon-dedicated PET scanner. The average delay between injection and starting of PET scanning was 3.5 min. Rice were maintained stable under 4% isoflurane anesthesia throughout scanning. The PET list-mode data were dynamically classified into 23 3D sinograms of span and three ring difference. After Fourier recombination, the data were reconstructed using a 2D ordered-subset expectation maximization algorithm. Random events were excluded before reconstruction. The response of detector is normalized using a component-based approach. All dynamic images were corrected for radioactive decay automatically. The PET images were reconstructed by a cone beam algorithm into 480 × 480 × 632 image arrays. After the reconstruction, images were spatially transformed to match the PET images ([Constantinescu et al., 2013a],[b]).
The reconstruction of the image was performed using the PMOD software (PMOD Technologies). The 3D volumes of interest (VOIs) were drawn manually of the following organs: brain, heart, liver, lungs, kidneys, cortical bone, and gallbladder. The organs were carefully identified and VOIs were drawn as irregular contours on high-resolution PET images obtained from each mouse ([Constantinescu et al., 2013b]; [Garg et al., 2017]). The size of each VOI was less than the actual size of each organ to minimize the effects of PET on adjacent organ spills. The VOIs drawing was verified by a second operator. The VOIs of cortical bone were generated by first using PET image to depict the entire femur bone ([Constantinescu et al., 2013b]). The VOI was transferred to a dynamic PET image and the mean time-activity curve (TAC) of the decay correction was extracted for each target organ ([Constantinescu et al., 2013b]).

In the case of `CC1(C)[C@@H](O)CC[C@]2(C)[C@H]3C(=O)C=C4[C@@H]5C[C@@](C)(C(=O)NCCCC[18F])CC[C@]5(C)CC[C@@]4(C)[C@]3(C)CC[C@@H]12` [[^18F]-GA, [^18F]-Glycyrrhetinic acid], the tissue uptake at 1 h (mice, Time(s) 1140) is reported as 4.25 %ID/g, the tissue uptake at 1 h (mice, Time(s) 1350) is reported as 4.17 %ID/g and the tissue uptake at 1 h (mice, Time(s) 1650) is reported as 4.06 %ID/g. For the same compound, the tissue uptake at 1 h (mice, Time(s) 1950) was 3.95 %ID/g, the tissue uptake at 1 h (mice, Time(s) 2250) was 3.79 %ID/g and the tissue uptake at 1 h (mice, Time(s) 2700) was 3.54 %ID/g. It also gave a tissue uptake at 1 h (mice, Time(s) 3300) of 3.17 %ID/g, a tissue uptake at 1 h (mice, Time(s) 3900) of 3.06 %ID/g and a tissue uptake at 1 h (mice, Time(s) 4500) of 3.07 %ID/g. The tissue uptake at 1 h (mice, Time(s) 5100) was 2.96 %ID/g, the tissue uptake at 1 h (mice, Time(s) 5700) was 2.88 %ID/g and the tissue uptake at 1 h (mice, Time(s) 6300) was 2.95 %ID/g. It also gave a tissue uptake at 1 h (mice, Time(s) 6900) of 2.85 %ID/g, a tissue uptake at 168 h (mice, Time(s) 60) of 8.74 %ID/g and a tissue uptake at 168 h (mice, Time(s) 180) of 4.38 %ID/g. The tissue uptake at 168 h (mice, Time(s) 300) was 3.63 %ID/g, the tissue uptake at 168 h (mice, Time(s) 420) was 3.15 %ID/g and the tissue uptake at 168 h (mice, Time(s) 540) was 2.85 %ID/g. The tissue uptake at 168 h (mice, Time(s) 660) was 2.9 %ID/g, the tissue uptake at 168 h (mice, Time(s) 780) was 2.51 %ID/g and the tissue uptake at 168 h (mice, Time(s) 900) was 2.49 %ID/g. For the same compound, the tissue uptake at 168 h (mice, Time(s) 1020) was 2.35 %ID/g, the tissue uptake at 168 h (mice, Time(s) 1140) was 2.19 %ID/g and the tissue uptake at 168 h (mice, Time(s) 1350) was 2.16 %ID/g. For the same compound, the tissue uptake at 168 h (mice, Time(s) 1650) was 2.06 %ID/g, the tissue uptake at 168 h (mice, Time(s) 1950) was 1.89 %ID/g and the tissue uptake at 168 h (mice, Time(s) 2250) was 1.78 %ID/g. The tissue uptake at 168 h (mice, Time(s) 2700) was 1.7 %ID/g, the tissue uptake at 168 h (mice, Time(s) 3300) was 1.48 %ID/g and the tissue uptake at 168 h (mice, Time(s) 3900) was 1.33 %ID/g. It also gave a tissue uptake at 168 h (mice, Time(s) 4500) of 1.24 %ID/g, a tissue uptake at 168 h (mice, Time(s) 5100) of 1.18 %ID/g and a tissue uptake at 168 h (mice, Time(s) 5700) of 1.06 %ID/g. The tissue uptake at 168 h (mice, Time(s) 6300) was 1.11 %ID/g, the tissue uptake at 168 h (mice, Time(s) 6900) was 1.05 %ID/g and the “%ID/g of [^18F]-GA in the lungs, Con” value (mice, control group, Time(s) 660) was 2.45 %ID/g. The “change of [^18F]-GA concentration in other organs after PG polysaccharides intervention” value (organs other than lung) was “no significant change in other organs”.

From PMC6110851, “An Optimized MicroPET Imaging Method for the Distribution and Synergies of Natural Products” (Frontiers in Pharmacology, 2018)
